Laboratory results reported in patent publication US20210196711A1, “LYSINE-SPECIFIC HISTONE DEMETHYLASE AS A NOVEL THERAPEUTIC TARGET IN MYELOPROLIFERATIVE NEOPLASMS” (Imago Biosciences, Inc., priority 2015, published 2021).
Counter-ions that a name gives are not always drawn.

Tests used:
[1] = primary myelofibrosis patients, 50 to 100 mg/day in combination with prednisone; cited from earlier work
[2] = test system: JAK2^V617F knock-in mouse model of myeloproliferative neoplasm (MPN); experiment: JAK2V617F knock-in mouse model of myeloproliferative neoplasm; format: in vivo; details: JAK2^V617F mice, 25 mg/kg/day, 56 days, compared to vehicle
Protocol: Compound [IMG 7289; need number or name inserted] was evaluated in the JAK2^V617F knock-in mouse model of myeloproliferative neoplasm (MPN). The procedure of Hasan et al. Blood, 2013, 122, 1464-1477, was followed. (See also Mullally et al. Cancer Cell 2010, 17, 584-596.) Animals bearing the JAK2^V617F were treated with Compound 2 tosylate (25 mg/kg/day) or vehicle for a total of 56 days. Blood samples were taken at the indicated time points and analyzed for hematocrit, white blood cell count (WBC) and platelets as described in Hasan et al. Non-drug-treated animals expressing the JAK2^V617F mutation manifested elevated levels of platelets, WBCs, and hematocrit as compared to wild-type animals.

| SMILES | patients with improved anemia and thrombocytopenia [1] | patients with reduced spleen size [1] | hematocrit [2] | platelet levels [2] | white blood cell count [2] |
| --- | --- | --- | --- | --- | --- |
| O=C1CCC(N2C(=O)c3ccccc3C2=O)C(=O)N1 (centres unmarked) [Thalidomide] | approximately 60% | approximately 20% |  |  |  |
| CN1CCN(C(=O)[C@H](CCCN[C@@H]2C[C@H]2c2ccc(F)cc2)NC(=O)c2ccc(-n3ccnn3)cc2)CC1 [Compound 2 tosylate] |  |  | reduction | reduction | reduction |
